Target: T1, human full-length MKNK1 (Homo sapiens, UniProt Q9BUB5, T385D)
T1 construct: GST (N); purchased Carna Biosciences 02-145; host or cells: insect cells (baculovirus expression system)
Experiment: MKNK1 kinase high ATP assay (TR-FRET)
Format: biochemical
Conditions: Table 1; MKNK1 kinase high ATP assay, 2 mM ATP; read-out: MKNK1 IC50
How it was run: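 Full-length human MKNK1 (T385D) preincubated 15 min at 22 °C with compound in HEPES pH 7.5/MgCl2/DTT buffer; reaction with 2 mM ATP (final) and 0.06 μM biotinylated peptide (final), 30 min at 22 °C.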

T1 sequence (Q9BUB5 1-424 isoform Q9BUB5-2 T344D): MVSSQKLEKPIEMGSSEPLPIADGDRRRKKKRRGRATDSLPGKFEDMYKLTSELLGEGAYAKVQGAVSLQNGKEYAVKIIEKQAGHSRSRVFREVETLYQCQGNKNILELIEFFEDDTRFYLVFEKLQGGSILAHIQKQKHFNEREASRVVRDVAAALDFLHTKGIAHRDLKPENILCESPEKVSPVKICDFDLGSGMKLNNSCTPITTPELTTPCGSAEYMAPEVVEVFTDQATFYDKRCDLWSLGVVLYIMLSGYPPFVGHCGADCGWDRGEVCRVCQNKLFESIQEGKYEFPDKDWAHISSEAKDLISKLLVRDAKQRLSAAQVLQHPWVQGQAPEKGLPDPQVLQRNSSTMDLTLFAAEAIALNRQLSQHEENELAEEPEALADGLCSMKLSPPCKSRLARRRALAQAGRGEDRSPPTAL

Question: C[C@@H]1CN(C(=O)[C@H]2CCc3c(sc4ncnc(Nc5cc6cn[nH]c6cc5F)c34)C2)C[C@@H](C)O1 [Example 224, [(2R,6R)-2,6-Dimethylmorpholin-4-yl]{(7S)-4-[(6-fluoro-1H-indazol-5-yl)amino]-5,6,7,8-tetrahydro[1]benzothieno[2,3-d]pyrimidin-7-yl}methanone] was tested. Which IC50 did it give?
Answer: 3.7 nM

Question: How did the IC50 turn out when C[C@H]1CN(C(=O)[C@H]2CCc3c(sc4ncnc(Nc5cc6cn[nH]c6cc5F)c34)C2)C[C@H](C)O1 [Example 225, [(2S,6S)-2,6-Dimethylmorpholin-4-yl]{(7S)-4-[(6-fluoro-1H-indazol-5-yl)amino]-5,6,7,8-tetrahydro[1]benzothieno[2,3-d]pyrimidin-7-yl}methanone] was run?
Answer: 8.7 nM

Question: With O=C([C@H]1CCc2c(sc3ncnc(Nc4cc5cn[nH]c5cc4F)c23)C1)N1CCOCC1 [Example 226, {(7S)-4-[(6-Fluoro-1H-indazol-5-yl)amino]-5,6,7,8-tetrahydro[1]benzothieno[2,3-d]pyrimidin-7-yl}(morpholin-4-yl)methanone] as the compound, how does the IC50 read?
Answer: 7.8 nM

Question: Which IC50 does the source give for C[C@H]1COCCN1C(=O)[C@H]1CCc2c(sc3ncnc(Nc4cc5cn[nH]c5cc4F)c23)C1 [Example 227, {(7S)-4-[(6-Fluoro-1H-indazol-5-yl)amino]-5,6,7,8-tetrahydro[1]benzothieno[2,3-d]pyrimidin-7-yl}[(3S)-3-methylmorpholin-4-yl]methanone] here?
Answer: 7 nM

Question: CN(C)C(=O)[C@H]1CCc2c(sc3ncnc(Nc4cc5cn[nH]c5cc4F)c23)C1 [Example 228, (7S)-4-[(6-Fluoro-1H-indazol-5-yl)amino]-N,N-dimethyl-5,6,7,8-tetrahydro[1]benzothieno[2,3-d]pyrimidine-7-carboxamide] was tested. Which IC50 did it give?
Answer: 6.1 nM

Question: Which IC50 does the source give for C[C@H]1CN(C(=O)[C@H]2CCc3c(sc4ncnc(Nc5cc6cn[nH]c6cc5Cl)c34)C2)C[C@H](C)O1 [Example 229, {(7S)-4-[(6-Chloro-1H-indazol-5-yl)amino]-5,6,7,8-tetrahydro[1]benzothieno[2,3-d]pyrimidin-7-yl}[(2S,6S)-2,6-dimethylmorpholin-4-yl]methanone] here?
Answer: 4.3 nM

Question: How did the IC50 turn out when COCCN(C)C(=O)[C@H]1CCc2c(sc3ncnc(Nc4cc5cn[nH]c5cc4Cl)c23)C1 [Example 230, (7S)-4-[(6-Chloro-1H-indazol-5-yl)amino]-N-(2-methoxyethyl)-N-methyl-5,6,7,8-tetrahydro[1]benzothieno[2,3-d]pyrimidine-7-carboxamide] was run?
Answer: 2.5 nM

Question: For O=C([C@H]1CCc2c(sc3ncnc(Nc4cc5cn[nH]c5cc4Cl)c23)C1)N1CCOCC1 [Example 231, {(7S)-4-[(6-Chloro-1H-indazol-5-yl)amino]-5,6,7,8-tetrahydro[1]benzothieno[2,3-d]pyrimidin-7-yl}(morpholin-4-yl)methanone], which IC50 is on record?
Answer: 4 nM

Question: C[C@@H]1COCCN1C(=O)[C@H]1CCc2c(sc3ncnc(Nc4cc5cn[nH]c5cc4Br)c23)C1 [Example 232, {(7S)-4-[(6-Bromo-1H-indazol-5-yl)amino]-5,6,7,8-tetrahydro[1]benzothieno[2,3-d]pyrimidin-7-yl}[(3R)-3-methylmorpholin-4-yl]methanone] was tested. Which IC50 did it give?
Answer: 5.8 nM

Question: For C[C@@H]1CN(C(=O)[C@H]2CCc3c(sc4ncnc(Nc5cc6cn[nH]c6cc5Br)c34)C2)C[C@@H](C)O1 [Example 233, {(7S)-4-[(6-Bromo-1H-indazol-5-yl)amino]-5,6,7,8-tetrahydro[1]benzothieno[2,3-d]pyrimidin-7-yl}[(2R,6R)-2,6-dimethylmorpholin-4-yl]methanone], which IC50 is on record?
Answer: 2.1 nM

Question: For C[C@@H]1CN(C(=O)[C@H]2CCc3c(sc4ncnc(Nc5cc6cn[nH]c6cc5Br)c34)C2)C[C@H](C)O1 [Example 234, {(7S)-4-[(6-Bromo-1H-indazol-5-yl)amino]-5,6,7,8-tetrahydro[1]benzothieno[2,3-d]pyrimidin-7-yl}[(2R,6S)-2,6-dimethylmorpholin-4-yl]methanone], which IC50 is on record?
Answer: 3.4 nM

Question: For C[C@H]1COCCN1C(=O)[C@H]1CCc2c(sc3ncnc(Nc4cc5cn[nH]c5cc4Br)c23)C1 [Example 235, {(7S)-4-[(6-Bromo-1H-indazol-5-yl)amino]-5,6,7,8-tetrahydro[1]benzothieno[2,3-d]pyrimidin-7-yl}[(3S)-3-methylmorpholin-4-yl]methanone], which IC50 is on record?
Answer: 3.4 nM

Question: How did the IC50 turn out when C[C@H]1CN(C(=O)[C@H]2CCc3c(sc4ncnc(Nc5cc6cn[nH]c6cc5Br)c34)C2)C[C@H](C)O1 [Example 236, {(7S)-4-[(6-Bromo-1H-indazol-5-yl)amino]-5,6,7,8-tetrahydro[1]benzothieno[2,3-d]pyrimidin-7-yl}[(2S,6S)-2,6-dimethylmorpholin-4-yl]methanone] was run?
Answer: 14.6 nM

Question: O=C([C@H]1CCc2c(sc3ncnc(Nc4cc5cn[nH]c5cc4Br)c23)C1)N1CCOCC1 [Example 237, {(7S)-4-[(6-Bromo-1H-indazol-5-yl)amino]-5,6,7,8-tetrahydro[1]benzothieno[2,3-d]pyrimidin-7-yl}(morpholin-4-yl)methanone] was tested. Which IC50 did it give?
Answer: 2.8 nM

Question: For COCCN(C)C(=O)[C@H]1CCc2c(sc3ncnc(Nc4cc5cn[nH]c5cc4Br)c23)C1 [Example 238, (7S)-4-[(6-Bromo-1H-indazol-5-yl)amino]-N-(2-methoxyethyl)-N-methyl-5,6,7,8-tetrahydro[1]benzothieno[2,3-d]pyrimidine-7-carboxamide], which IC50 is on record?
Answer: 3.8 nM

Question: C[C@H]1CN(C(=O)[C@H]2CCc3c(sc4ncnc(Nc5cc6cn[nH]c6cc5N(C)C)c34)C2)C[C@H](C)O1 [Example 239, [(7S)-4-{[6-(Dimethylamino)-1H-indazol-5-yl]amino}-5,6,7,8-tetrahydro[1]benzothieno[2,3-d]pyrimidin-7-yl][(2S,6S)-2,6-dimethylmorpholin-4-yl]methanone] was tested. Which IC50 did it give?
Answer: 0.3 nM

Question: C[C@@H]1CN(C(=O)[C@H]2CCc3c(sc4ncnc(Nc5cc6cn[nH]c6cc5N(C)C)c34)C2)C[C@@H](C)O1 [Example 240, [(7S)-4-{[6-(Dimethylamino)-1H-indazol-5-yl]amino}-5,6,7,8-tetrahydro[1]benzothieno[2,3-d]pyrimidin-7-yl][(2R,6R)-2,6-dimethylmorpholin-4-yl]methanone] was tested. Which IC50 did it give?
Answer: 0.2 nM

Question: For CN(CCC(F)(F)F)C(=O)[C@H]1CCc2c(sc3ncnc(Nc4cc5cn[nH]c5cc4N(C)C)c23)C1 [Example 241, (7S)-4-{[6-(Dimethylamino)-1H-indazol-5-yl]amino}-N-methyl-N-(3,3,3-trifluoropropyl)-5,6,7,8-tetrahydro[1]benzothieno[2,3-d]pyrimidine-7-carboxamide], which IC50 is on record?
Answer: 0.2 nM

Question: CN(C)C(=O)[C@H]1CCc2c(sc3ncnc(Nc4cc5cn[nH]c5cc4N(C)CCC(C)(C)O)c23)C1 [Example 242, (7S)-4-({6-[(3-Hydroxy-3-methylbutyl)(methyl)amino]-1H-indazol-5-yl}amino)-N,N-dimethyl-5,6,7,8-tetrahydro[1]benzothieno[2,3-d]pyrimidine-7-carboxamide] was tested. Which IC50 did it give?
Answer: 20.3 nM

Question: With CN(C)C(=O)[C@H]1CCc2c(sc3ncnc(Nc4cc5cn[nH]c5cc4N(C)CCNC(=O)OC(C)(C)C)c23)C1 [Example 243, tert-butyl {2-[(5-{[(7S)-7-(Dimethylcarbamoyl)-5,6,7,8-tetrahydro[1]benzothieno[2,3-d]pyrimidin-4-yl]amino}-1H-indazol-6-yl)(methyl)amino]ethyl}carbamate] as the compound, how does the IC50 read?
Answer: 1.6 nM

Question: Which IC50 does the source give for CN(C)C(=O)[C@H]1CCc2c(sc3ncnc(Nc4cc5cn[nH]c5cc4NCCNC(=O)OC(C)(C)C)c23)C1 [Example 244, tert-Butyl {2-[(5-{[(7S)-7-(dimethylcarbamoyl)-5,6,7,8-tetrahydro[1]benzothieno[2,3-d]pyrimidin-4-yl]amino}-1H-indazol-6-yl)amino]ethyl}carbamate] here?
Answer: 48.3 nM

Question: CN(CCC(F)(F)F)C(=O)[C@H]1CCc2c(sc3ncnc(Nc4cc5cn[nH]c5cc4N4CCCC4)c23)C1 [Example 245, (7S)—N-Methyl-4-{[6-(pyrrolidin-1-yl)-1H-indazol-5-yl]amino}-N-(3,3,3-trifluoropropyl)-5,6,7,8-tetrahydro[1]benzothieno[2,3-d]pyrimidine-7-carboxamide] was tested. Which IC50 did it give?
Answer: 0.6 nM

Question: CSc1cc2[nH]ncc2cc1Nc1ncnc2sc3c(c12)CC[C@H](C(=O)N1C[C@H](C)O[C@@H](C)C1)C3 [Example 246, [(2S,6S)-2,6-Dimethylmorpholin-4-yl][(7S)-4-{[6-(methylsulfanyl)-1H-indazol-5-yl]amino}-5,6,7,8-tetrahydro[1]benzothieno[2,3-d]pyrimidin-7-yl]methanone] was tested. Which IC50 did it give?
Answer: 5.3 nM

Question: How did the IC50 turn out when CSc1cc2[nH]ncc2cc1Nc1ncnc2sc3c(c12)CC[C@H](C(=O)N1C[C@@H](C)O[C@H](C)C1)C3 [Example 247, [(2R,6R)-2,6-Dimethylmorpholin-4-yl][(7S)-4-{[6-(methylsulfanyl)-1H-indazol-5-yl]amino}-5,6,7,8-tetrahydro[1]benzothieno[2,3-d]pyrimidin-7-yl]methanone] was run?
Answer: 0.6 nM

Question: With CSc1cc2[nH]ncc2cc1Nc1ncnc2sc3c(c12)CC[C@H](C(=O)N1CCOC[C@H]1C)C3 [Example 248, [(3R)-3-Methylmorpholin-4-yl][(7S)-4-{[6-(methylsulfanyl)-1H-indazol-5-yl]amino}-5,6,7,8-tetrahydro[1]benzothieno[2,3-d]pyrimidin-7-yl]methanone] as the compound, how does the IC50 read?
Answer: 2.2 nM

Question: With CSc1cc2[nH]ncc2cc1Nc1ncnc2sc3c(c12)CC[C@H](C(=O)N(C)CCC(F)(F)F)C3 [Example 249, (7S)—N-Methyl-4-{[6-(methylsulfanyl)-1H-indazol-5-yl]amino}-N-(3,3,3-trifluoropropyl)-5,6,7,8-tetrahydro[1]benzothieno[2,3-d]pyrimidine-7-carboxamide] as the compound, how does the IC50 read?
Answer: 2.3 nM

Question: CSc1cc2[nH]ncc2cc1Nc1ncnc2sc3c(c12)CC[C@H](C(=O)N1CCC1)C3 [Example 250, Azetidin-1-yl[(7S)-4-{[6-(methylsulfanyl)-1H-indazol-5-yl]amino}-5,6,7,8-tetrahydro[1]benzothieno[2,3-d]pyrimidin-7-yl]methanone] was tested. Which IC50 did it give?
Answer: 2.8 nM
